Reference: US7786141B2 (Vertex Pharmaceuticals Incorporated, priority 2004, dated 2010)
Like-named read-outs stand apart in the source and are kept apart here.

What was measured:
M4 muscarinic receptor = target: T1, M4 muscarinic receptor (Homo sapiens, UniProt P08173); assay: Functional mobilization of intracellular calcium (FLIPR) in M4-CHO cells; assay type: cell-based
T1 construct: expressed in transfected cells; host or cells: CHO (M4-CHO)
T1 sequence (P08173 1-479): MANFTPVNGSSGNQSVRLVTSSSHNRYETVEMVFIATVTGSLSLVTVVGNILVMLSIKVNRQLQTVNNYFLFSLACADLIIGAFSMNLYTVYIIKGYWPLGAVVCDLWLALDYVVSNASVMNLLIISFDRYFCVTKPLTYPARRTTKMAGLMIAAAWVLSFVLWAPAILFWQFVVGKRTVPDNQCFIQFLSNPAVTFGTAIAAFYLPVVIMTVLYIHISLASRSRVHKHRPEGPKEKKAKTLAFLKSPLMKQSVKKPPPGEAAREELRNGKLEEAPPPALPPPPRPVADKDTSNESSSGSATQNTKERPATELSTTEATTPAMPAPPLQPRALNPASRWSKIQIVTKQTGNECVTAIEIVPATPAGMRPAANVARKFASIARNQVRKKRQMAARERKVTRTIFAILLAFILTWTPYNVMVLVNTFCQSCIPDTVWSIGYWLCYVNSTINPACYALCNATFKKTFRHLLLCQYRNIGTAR
Procedure, shortened: (§1)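 CHO cells stably expressing human M1 or M4 receptor were loaded with Fluo-3 AM (or Calcium 3 dye) in Hepes-buffered saline, pH 7.4, with 1 mM probenecid, 0.5% final DMSO. Agonist mode: compound added directly; antagonist mode: 15 min preincubation before carbachol at EC80. FLIPR fluorescence recorded 60 sec.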

M1 muscarinic receptor = target: T2, M1 muscarinic receptor (Homo sapiens, UniProt P11229); assay: Functional mobilization of intracellular calcium (FLIPR) in M1-CHO cells; assay type: cell-based
T2 construct: expressed in transfected cells; host or cells: CHO (M1-CHO)
T2 sequence (P11229 1-460): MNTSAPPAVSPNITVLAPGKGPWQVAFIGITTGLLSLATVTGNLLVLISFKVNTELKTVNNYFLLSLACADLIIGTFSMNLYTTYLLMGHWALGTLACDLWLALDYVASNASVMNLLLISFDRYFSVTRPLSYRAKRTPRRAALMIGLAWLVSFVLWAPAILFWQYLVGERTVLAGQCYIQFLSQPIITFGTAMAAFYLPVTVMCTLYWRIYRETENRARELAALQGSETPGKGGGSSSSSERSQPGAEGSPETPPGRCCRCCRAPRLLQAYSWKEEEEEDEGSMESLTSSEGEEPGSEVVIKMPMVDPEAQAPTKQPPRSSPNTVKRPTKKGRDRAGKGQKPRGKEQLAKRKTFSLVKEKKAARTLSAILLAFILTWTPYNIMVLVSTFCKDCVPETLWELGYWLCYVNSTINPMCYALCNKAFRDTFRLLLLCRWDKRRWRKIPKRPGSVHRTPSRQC
Procedure, shortened: as §1

[1] = Table 4, 100% efficacy is the maximum response obtained with the Carbachol control
[2] = Table 4, M4 receptor, calcium mobilization (FLIPR)
[3] = Table 4, M1 receptor, calcium mobilization (FLIPR)
[4] = Table 4, modulating M4 receptor
[5] = Table 4, modulating M1 receptor
[6] = M4 receptor, calcium mobilization
[7] = M4 receptor, calcium mobilization, read-out: M4 Efficacy
[8] = M1 receptor, calcium mobilization
[9] = M1 receptor, calcium mobilization, read-out: M1 Efficacy

SMILES	Emax (M4 muscarinic receptor; [1]) [%]	Emax (M1 muscarinic receptor; [1]) [%]	M4 Activity (M4 muscarinic receptor; [4])	M1 Activity (M1 muscarinic receptor; [5])	M4 Activity (M4 muscarinic receptor; [6])	Emax (M4 muscarinic receptor; [7]) [%]	M1 Activity (M1 muscarinic receptor; [8])	Emax (M1 muscarinic receptor; [9]) [%]	further results
CCc1cncc(N2CCC(N3CCC4(CC3)CN(C(C)=O)c3ccccc34)CC2)n1 [compound 822]	25 to 100	25 to 100							M4 Activity (M4 muscarinic receptor; [2]): xxx (activity was measured to be less than 2.0 μM); M1 Activity (M1 muscarinic receptor; [3]): xxx (activity was measured to be less than 2.0 μM)
COC(=O)N1CCCC(N2CCC3(CC2)CN(C(=O)N(C)C)c2ccc(F)cc23)CC1 (stereo not drawn) [compound 628]	25 to 100	25 to 100	xxx (activity was measured to be less than 2.0 μM)	xxx (activity was measured to be less than 2.0 μM)					
O=C(C1CCC1)N1CC2(CCN(C3CC4CCC(C3)N4C(=O)O[C@@H]3CCOC3)CC2)c2cc(F)ccc21 (stereo partly drawn) [compound 69]					xx (activity was measured to be between 0.1 μM and 1.0 μM)	< 65	xx (activity was measured to be between 0.1 μM and 1.0 μM)	< 65	
CCOC(=O)N1CCC(N2CCC3(CC2)CN(CC(=O)N(C)C)c2ccc(F)cc23)CC1 [compound 800]	25 to 100	25 to 100	xxx (activity was measured to be less than 2.0 μM)	xxx (activity was measured to be less than 2.0 μM)					
COCCOC(=O)N1CC[C@@H](CN2CCC3(CC2)CN(C(C)=O)c2ccccc23)C1 [compound 459]	< 25	25 to 100	xx (activity was measured to be between 2.0 μM and 5.0 μM)	x (activity was measured to be greater than 5.0 μM)					
CCCC1CCC(N2CCC3(CC2)CN(C(C)=O)c2ccc(F)cc23)CC1 (stereo not drawn) [compound 131]					xx (activity was measured to be between 0.1 μM and 1.0 μM)	> 85	xxx (activity was measured to be less than 0.1 μM)	65 to 85	
CCCC#CCOC(=O)N1CCC(N2CCC3(CC2)CN(C(=O)N(C)C)c2ccc(F)cc23)CC1 [compound 456]	25 to 100	25 to 100	xxx (activity was measured to be less than 2.0 μM)	xxx (activity was measured to be less than 2.0 μM)					
COCCOC(=O)N1C2CCC1CC(N1CCC3(CC1)CN(C(=O)N(C)C)c1ccc(F)cc13)C2 (stereo not drawn) [compound 119]					x (activity was measured to be greater than 1.0 μM)	< 65	xxx (activity was measured to be less than 0.1 μM)	< 65	
CC(=O)N1CC2(CCN(C3CCN(c4nncs4)CC3)CC2)c2ccccc21 [compound 973]	< 25	25 to 100							M4 Activity (M4 muscarinic receptor; [2]): x (activity was measured to be greater than 5.0 μM); M1 Activity (M1 muscarinic receptor; [3]): x (activity was measured to be greater than 5.0 μM)
CCOC(=O)N1CCC(N2CCC3(CC2)CN(C(=O)OCCOC)c2ccc(F)cc23)CC1 [compound 38]					xxx (activity was measured to be less than 0.1 μM)	> 85	xxx (activity was measured to be less than 0.1 μM)	> 85	
CC(=O)N1CC2(CCN(C[C@@H]3CCN(c4cnccn4)C3)CC2)c2c(C)cccc21 [compound 913]	< 25	25 to 100							M4 Activity (M4 muscarinic receptor; [2]): x (activity was measured to be greater than 5.0 μM); M1 Activity (M1 muscarinic receptor; [3]): x (activity was measured to be greater than 5.0 μM)
CCOC(=O)N1C2CCC1CC(N1CCC3(CC1)CN(C(=O)OC)c1ccc(F)cc13)C2 (stereo not drawn) [compound 167]					xx (activity was measured to be between 0.1 μM and 1.0 μM)	> 85	xxx (activity was measured to be less than 0.1 μM)	65 to 85	
CCOC(=O)N1C2CCC1CC(N1CCC3(CC1)CC(=O)Nc1ccccc13)C2 (stereo not drawn) [compound 56]					xxx (activity was measured to be less than 0.1 μM)	65 to 85	xxx (activity was measured to be less than 0.1 μM)	65 to 85	
CN(C)C(=O)N1CC2(CCN(C3CC4CCC(C3)N4C(=O)O[C@@H]3CCOC3)CC2)c2cc(F)ccc21 (stereo partly drawn) [compound 188]					x (activity was measured to be greater than 1.0 μM)	65 to 85	x (activity was measured to be greater than 1.0 μM)	< 65	
O=C(O[C@@H]1CCOC1)N1CC2(CCN(C3CC4CCC(C3)N4C(=O)O[C@@H]3CCOC3)CC2)c2cc(F)ccc21 (stereo partly drawn) [compound 112]					xx (activity was measured to be between 0.1 μM and 1.0 μM)	< 65	xxx (activity was measured to be less than 0.1 μM)	65 to 85	
CC(=O)NC1CCC2(CCN(CCC3CCOCC3)CC2)c2ccccc21 (stereo not drawn) [compound 709]	< 25	25 to 100	xxx (activity was measured to be less than 2.0 μM)	xxx (activity was measured to be less than 2.0 μM)					
O=C1CC2(CCN(C3CCCCCC3)CC2)c2ccccc2N1 [compound 242]					xx (activity was measured to be between 0.1 μM and 1.0 μM)	> 85	xxx (activity was measured to be less than 0.1 μM)	65 to 85	
CN(C)C(=O)N1CC2(CCN(C3CCN(C(=O)c4ccccn4)CC3)CC2)c2cc(F)ccc21 [compound 718]	< 25	< 25	x (activity was measured to be greater than 5.0 μM)	x (activity was measured to be greater than 5.0 μM)					
CCOC(=O)N1C2CCC1CC(N1CCC3(CC1)CN(C(=O)C1CC1)c1ccc(F)cc13)C2 (stereo not drawn) [compound 214]					x (activity was measured to be greater than 1.0 μM)	< 65	x (activity was measured to be greater than 1.0 μM)	< 65	
C/C=C/C(=O)N1CC2(CCN(C3CCN(C(=O)OCC)CC3)CC2)c2cc(F)ccc21 [compound 508]	25 to 100	25 to 100	xxx (activity was measured to be less than 2.0 μM)	xxx (activity was measured to be less than 2.0 μM)					
CCOC(=O)N1CCC(N2CCC3(CC2)CN(C(C)=O)c2c(-c4cccc(F)c4)cccc23)CC1 [compound 499]	< 25	25 to 100	x (activity was measured to be greater than 5.0 μM)	x (activity was measured to be greater than 5.0 μM)					
CCOC(=O)N1CCC(N2CCC3(CC2)CN(C(C)=O)c2ccc(-c4ccc(F)cc4)cc23)CC1 [compound 950]	25 to 100	25 to 100							M4 Activity (M4 muscarinic receptor; [2]): xx (activity was measured to be between 2.0 μM and 5.0 μM); M1 Activity (M1 muscarinic receptor; [3]): xx (activity was measured to be between 2.0 μM and 5.0 μM)
O=C(N[C@H]1CC2(CCN(C3CCCCC3)CC2)c2ccccc21)C1CC1 [compound 779]	< 25	25 to 100	xxx (activity was measured to be less than 2.0 μM)	xx (activity was measured to be between 2.0 μM and 5.0 μM)					
CCOC(=O)N1CCC(N2CCC3(CC2)CN(C(=O)c2cccnc2)c2ccc(F)cc23)CC1 [compound 144]					xxx (activity was measured to be less than 0.1 μM)	> 85	xxx (activity was measured to be less than 0.1 μM)	> 85	
CC(=O)N[C@H]1CCC2(CCN(C[C@@H]3C[C@H]4C=C[C@H]3C4)CC2)c2ccccc21 [compound 447]	25 to 100	25 to 100	xxx (activity was measured to be less than 2.0 μM)	xxx (activity was measured to be less than 2.0 μM)					
CC(C)C(=O)N1CCC(N2CCC3(CC2)CN(C(=O)N(C)C)c2ccc(F)cc23)CC1 [compound 665]	< 25	25 to 100	x (activity was measured to be greater than 5.0 μM)	x (activity was measured to be greater than 5.0 μM)					
CCOC(=O)N1CCC(N2CCC3(CC2)CN(C(=O)OCC)c2ccc(F)cc23)CC1 [compound 427]									EC50 (M4 muscarinic receptor; M4-CHO cells, calcium mobilization (FLIPR)): > 1000 nM; Emax (M4 muscarinic receptor; M4-CHO cells, calcium mobilization (FLIPR), read-out: M4 Efficacy): < 65%; EC50 (M1 muscarinic receptor; M1-CHO cells, calcium mobilization (FLIPR)): 100 to 1000 nM; Emax (M1 muscarinic receptor; M1-CHO cells, calcium mobilization (FLIPR), read-out: M1 Efficacy): < 65%
